Laboratory results taken from patent US12448373B2, “Azetidinyl-acetamides as CXCR7 inhibitors” (CHEMOCENTRYX, INC., priority 2021, dated 2025).
pIC50: −log10 of the molar value.

Molecular target: T1, CXCR7 (Homo sapiens, UniProt P25106)
T1 construct: expressed in transfected cells; host or cells: CHO cells (CHO-CXCR7), transgenes maintained with Hygromycin B and G418
Experiment: CXCR7 β-arrestin recruitment assay in CHO-CXCR7 cells (ProLink/EA β-galactosidase complementation), induced by human SDF-1a
Type: cell-based
Settings: assay buffer, SDF-1a at EC50 concentration
Method in brief: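 SDF-1α-induced β-arrestin recruitment was measured by enzyme-fragment complementation (ProLink-CXCR7 with β-arrestin-EA) in stable CHO cells. Agonist was dosed at its EC50, determined the same day, alongside serially diluted compound for 1.5 h at 37 °C. Fluorogenic galactoside substrate (0.4 mM, 30 min) was read at 360/465 nm, with IC50 from 3-parameter nonlinear regression.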

T1 sequence (P25106 whole entry): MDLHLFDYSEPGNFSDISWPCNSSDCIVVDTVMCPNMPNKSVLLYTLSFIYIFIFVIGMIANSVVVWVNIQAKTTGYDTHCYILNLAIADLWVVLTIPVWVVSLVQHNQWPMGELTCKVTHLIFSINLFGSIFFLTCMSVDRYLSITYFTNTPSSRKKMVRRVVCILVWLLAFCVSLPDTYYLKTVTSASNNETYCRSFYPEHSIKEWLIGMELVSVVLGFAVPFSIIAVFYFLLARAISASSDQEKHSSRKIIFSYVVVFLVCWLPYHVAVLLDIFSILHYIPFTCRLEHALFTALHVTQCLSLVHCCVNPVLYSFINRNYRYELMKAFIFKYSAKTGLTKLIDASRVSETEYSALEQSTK

Row | Structure (SMILES) | pIC50
1 | Cc1ccc(C(C)(C)NC(=O)CC2(NC(=O)c3cc(-c4ccc(F)cc4F)on3)CN([C@H]3CC[C@](C)(O)CC3)C2)cc1 [Example 1.243] | 6.00 to 7.00
2 | CC(C)(NC(=O)CC1(NC(=O)c2cc(-c3ccc(F)cc3F)on2)CN(C2CCC3(CCOCC3)CC2)C1)c1ccccn1 [Example 1.102] | 6.00 to 7.00
3 | Cc1cc(Cl)cc(C(C)(C)NC(=O)CC2(NC(=O)c3cc(-c4ccc(F)cc4F)on3)CN([C@H]3CC[C@@](C)(O)CC3)C2)c1 [Example 1.083] | > 8.30
4 | Cc1ccc(F)c(C(C)(C)NC(=O)CC2(NC(=O)c3cc(-c4ccc(F)cc4F)on3)CN([C@H]3CC[C@](C)(O)CC3)C2)c1 [Example 1.185] | > 8.30
5 | CC(C)(NC(=O)CC1(NC(=O)c2cc(-c3ccc(F)cc3F)on2)CN([C@H]2CC[C@](C)(O)CC2)C1)c1ccc(Cl)cc1 [Example 1.250] | 6.00 to 7.00
6 | CC(C)(C)CN1CC(CC(=O)NC2(c3ncccn3)CC2)(NC(=O)c2cc(-c3ccc(F)cc3F)on2)C1 [Example 1.330] | 7.00 to 8.30
7 | Cc1cccc(C(C)(C)NC(=O)CC2(NC(=O)c3cc(-c4ccc(F)cc4F)on3)CN(C3CCCCC3)C2)n1 [Example 1.293] | > 8.30
8 | Cc1cc(C)nc(C(C)(C)NC(=O)CC2(NC(=O)c3nnc(-c4ccc(F)cc4F)s3)CN([C@H]3CC[C@](C)(O)CC3)C2)n1 [Example 1.061] | > 8.30
9 | CC(C)(NC(=O)CC1(NC(=O)c2cn(-c3ccc(F)cc3)nn2)CN([C@H]2CC[C@](C)(O)CC2)C1)c1ccccc1 [Example 1.084] | 6.00 to 7.00
10 | CC(C)(NC(=O)CC1(NC(=O)c2cc(-c3ccc(F)cc3F)on2)CN(C2CC3CC3C2)C1)c1ccccn1 (centres unmarked) [Example 1.014] | 7.00 to 8.30
11 | CC(C)(F)CN1CC(CC(=O)NC(C)(C)c2ccccn2)(NC(=O)c2cc(-c3ccc(F)cc3F)on2)C1 [Example 1.104] | 4.70 to 6.00
12 | CC(C)(NC(=O)CC1(NC(=O)c2cc(-c3ccc(F)cc3F)on2)CN(CC2COC2)C1)c1cccc(Cl)c1 [Example 1.135] | 6.00 to 7.00
13 | CC(C)(NC(=O)CC1(NC(=O)c2cc(-c3ccc(F)cc3F)on2)CN(C2CC3(CC3)C2)C1)c1ccccn1 [Example 1.015] | 7.00 to 8.30
14 | CC(C)(NC(=O)CC1(NC(=O)c2cc(-c3ccc(F)cc3F)on2)CN([C@H]2CC[C@](C)(O)CC2)C1)c1cc(Cl)ccc1F [Example 1.133] | > 8.30
15 | CC(C)(NC(=O)CC1(NC(=O)c2cc(-c3ccc(F)cc3F)on2)CN([C@H]2CC[C@](C)(O)CC2)C1)c1cc(F)ccc1F [Example 1.236] | > 8.30
16 | CC(C)(NC(=O)CC1(NC(=O)c2cn(-c3ccc(F)cc3F)nn2)CN([C@H]2CC[C@](C)(O)CC2)C1)c1cccc(Cl)c1 [Example 1.067] | 7.00 to 8.30
17 | CC[C@@H](NC(=O)CC1(NC(=O)c2cc(-c3ccc(F)cc3F)on2)CN(C2CCCCC2)C1)c1ccccc1 [Example 1.307] | 7.00 to 8.30
18 | COc1cccc(C(C)(C)NC(=O)CC2(NC(=O)c3cc(-c4ccc(F)cc4F)on3)CN(CC3CC3)C2)c1 [Example 1.117] | 6.00 to 7.00
19 | Cc1cc(C(C)(C)NC(=O)CC2(NC(=O)c3cc(-c4ccc(F)cc4F)on3)CN([C@H]3CC[C@](C)(O)CC3)C2)cc(C)n1 [Example 1.112] | 7.00 to 8.30
20 | COc1ccc(C(C)(C)NC(=O)CC2(NC(=O)c3cc(-c4ccc(F)cc4F)on3)CN([C@H]3CC[C@@](C)(O)CC3)C2)c(F)c1 [Example 1.212] | 7.00 to 8.30

Row | Structure (SMILES) | pIC50
21 | C[C@@H](NC(=O)CC1(NC(=O)c2cc(-c3ccc(F)cc3F)on2)CN(CC2CC2)C1)c1ccccn1 [Example 1.323] | 6.00 to 7.00
22 | CC(C)(NC(=O)CC1(NC(=O)c2cc(-c3ccc(F)cc3F)on2)CN(CCC(F)(F)F)C1)c1ccccn1 [Example 1.019] | 6.00 to 7.00
23 | C[C@]1(O)CC[C@@H](N2CC(CC(=O)NCc3cccc(Cl)c3)(NC(=O)c3cc(-c4ccc(F)cc4F)on3)C2)CC1 [Example 1.109] | 6.00 to 7.00
24 | CC(C)(NC(=O)CC1(NC(=O)c2cc(-c3ccc(F)cc3F)on2)CN(CC2CCCC2)C1)c1ccccn1 [Example 1.029] | 7.00 to 8.30
25 | COc1ccnc(C(C)(C)NC(=O)CC2(NC(=O)c3cc(-c4ccc(F)cc4F)on3)CN([C@H]3CC[C@](C)(O)CC3)C2)c1 [Example 1.201] | > 8.30
26 | CC(C)(O)CN1CC(CC(=O)NC(C)(C)c2cccc(F)c2)(NC(=O)c2cc(-c3ccc(F)cc3F)on2)C1 [Example 1.251] | 7.00 to 8.30
27 | COc1cccc(C(C)(C)NC(=O)CC2(NC(=O)c3cc(-c4ccc(F)cc4F)on3)CN([C@H]3CC[C@@](C)(O)CC3)C2)c1 [Example 1.238] | 7.00 to 8.30
28 | CC(C)(NC(=O)CC1(NC(=O)c2noc(-c3ccc(F)cc3F)n2)CN([C@H]2CC[C@](C)(O)CC2)C1)c1ccccc1 [Example 1.078] | 6.00 to 7.00
29 | Cc1cccc(C(C)(C)NC(=O)CC2(NC(=O)c3cc(-c4ccc(F)cc4F)on3)CN(C3CCC4(CC3)COC4)C2)n1 [Example 1.226] | 7.00 to 8.30
30 | CC(C)(NC(=O)CC1(NC(=O)c2cc(-c3ccc(F)cc3F)on2)CN(CC2CC2)C1)c1cccc(Cl)c1 [Example 1.113] | 7.00 to 8.30
31 | CC(C)(NC(=O)CC1(NC(=O)c2cn(-c3ccc(F)cc3F)nn2)CN(C2CCCCC2)C1)c1ccccn1 [Example 1.075] | 7.00 to 8.30
32 | CC(C)(NC(=O)CC1(NC(=O)c2cc(-c3ccc(F)cc3F)on2)CN([C@H]2CC[C@@](C)(C(=O)O)CC2)C1)c1ccccn1 [Example 1.107] | 4.70 to 6.00
33 | CC(C)(NC(=O)CC1(NC(=O)c2cc(-c3ccc(F)cc3F)on2)CN([C@H]2CC[C@](C)(O)CC2)C1)c1ncccc1F [Example 1.021] | 7.00 to 8.30
34 | Cc1cc(C(F)(F)F)cc(C(C)(C)NC(=O)CC2(NC(=O)c3nnc(-c4ccc(F)cc4F)s3)CN([C@H]3CC[C@](C)(O)CC3)C2)n1 [Example 1.349] | 7.00 to 8.30
35 | Cc1cc(C(C)(C)NC(=O)CC2(NC(=O)c3cc(-c4ccc(F)cc4F)on3)CN([C@H]3CC[C@](C)(O)CC3)C2)nc(C)n1 [Example 1.079] | 7.00 to 8.30
36 | CC(C)(NC(=O)CC1(NC(=O)c2cc(-c3ccc(F)cc3F)on2)CN([C@H]2CC[C@@](C)(O)CC2)C1)c1ccnc(C2CC2)c1 [Example 1.146] | 7.00 to 8.30
37 | CC(C)(NC(=O)CC1(NC(=O)c2cc(-c3ccc(F)cc3F)on2)CN([C@H]2CC[C@](C)(O)CC2)C1)c1ccc(F)cc1F [Example 1.287] | 7.00 to 8.30
38 | Cc1cc(C)nc(C(C)(C)NC(=O)CC2(NC(=O)c3cc(-c4ccc(F)cc4F)on3)CN([C@H]3CC[C@](C)(O)CC3)C2)n1 [Example 1.168] | > 8.30
39 | Cc1cc(C(C)C)cc(C(C)(C)NC(=O)CC2(NC(=O)c3nnc(-c4ccc(F)cc4F)s3)CN([C@H]3CC[C@](C)(O)CC3)C2)n1 [Example 1.347] | 6.00 to 7.00
40 | CC(C)(NC(=O)CC1(NC(=O)c2cnc(-c3ccc(F)cc3F)s2)CN([C@H]2CC[C@@](C)(O)CC2)C1)c1cccc(Cl)c1 [Example 1.068] | 7.00 to 8.30

Row | Structure (SMILES) | pIC50
41 | Cc1ccc(C(C)(C)NC(=O)CC2(NC(=O)c3cc(-c4ccc(F)cc4F)on3)CN(C3CCCCC3)C2)cn1 [Example 1.281] | 7.00 to 8.30
42 | Cc1cc(C(C)(C)NC(=O)CC2(NC(=O)c3cn(-c4ccc(F)cc4F)nn3)CN(C3CCCCC3)C2)ccn1 [Example 1.074] | 7.00 to 8.30
43 | COC1CCCCC1N1CC(CC(=O)NC(C)(C)c2ccccn2)(NC(=O)c2cc(-c3ccc(F)cc3F)on2)C1 (centres unmarked) [Example 1.305] | > 8.30
44 | CC(C)(F)CN1CC(CC(=O)NC(C)(C)c2cccc(Cl)c2)(NC(=O)c2cc(-c3ccc(F)cc3F)on2)C1 [Example 1.096] | 6.00 to 7.00
45 | CC(C)(NC(=O)CC1(NC(=O)c2cc(-c3ccc(F)cc3F)on2)CN([C@H]2CC[C@](C)(O)CC2)C1)c1ccccc1F [Example 1.228] | > 8.30
46 | COc1ccc(F)cc1C(C)(C)NC(=O)CC1(NC(=O)c2nnc(-c3ccc(F)cc3F)s2)CN([C@H]2CC[C@](C)(O)CC2)C1 [Example 1.017] | 7.00 to 8.30
47 | Cn1ccc2c(C(C)(C)NC(=O)CC3(NC(=O)c4cc(-c5ccc(F)cc5F)on4)CN([C@H]4CC[C@](C)(O)CC4)C3)cccc21 [Example 1.126] | 7.00 to 8.30
48 | Cc1cc(C)nc(C(C)(C)NC(=O)CC2(NC(=O)c3cc(-c4ccc(F)cc4F)on3)CN(CC3(C)CCC3)C2)n1 [Example 1.001] | > 8.30
49 | COc1cc(OC)nc(C(C)(C)NC(=O)CC2(NC(=O)c3nnc(-c4ccc(F)cc4F)s3)CN([C@H]3CC[C@](C)(O)CC3)C2)c1 [Example 1.342] | 7.00 to 8.30
50 | CC(C)(NC(=O)CC1(NC(=O)c2nnc(-c3ccc(F)cc3F)s2)CN(C2CCCCC2)C1)c1cccc(Cl)c1 [Example 1.073] | > 8.30
51 | CC(C)(NC(=O)CC1(NC(=O)c2cc(-c3ccc(F)cc3F)on2)CN([C@H]2CC[C@](C)(O)CC2)C1)c1cc(Cl)ccc1Cl [Example 1.088] | > 8.30
52 | CC(C)(O)CCN1CC(CC(=O)NC(C)(C)c2ccccn2)(NC(=O)c2cc(-c3ccc(F)cc3F)on2)C1 [Example 1.230] | 4.70 to 6.00
53 | CC(C)(NC(=O)CC1(NC(=O)c2nnc(-c3ccc(F)cc3F)s2)CN([C@H]2CC[C@](C)(O)CC2)C1)c1cc(Cl)cc(C#N)c1 [Example 1.345] | 7.00 to 8.30
54 | CCC(C)CN1CC(CC(=O)NC(C)(C)c2ccccn2)(NC(=O)c2cc(-c3ccc(F)cc3F)on2)C1 (centres unmarked) [Example 1.010] | > 8.30
55 | CC(C)(NC(=O)CC1(NC(=O)c2cc(-c3ccc(F)cc3F)on2)CN([C@H]2CC[C@@](C)(O)CC2)C1)c1ccccc1 [Example 1.267] | > 8.30
56 | CC(C)(NC(=O)CC1(NC(=O)c2cc(-c3ccc(F)cc3F)on2)CN([C@H]2CC[C@](C)(O)CC2)C1)c1cccc(C(F)(F)F)c1 [Example 1.199] | 7.00 to 8.30
57 | CC(C)CN1CC(CC(=O)NC(C)(C)c2cccc(Cl)c2)(NC(=O)c2nnc(-c3ccc(F)cc3F)s2)C1 [Example 1.040] | 7.00 to 8.30
58 | Cc1ccnc(C(C)(C)NC(=O)CC2(NC(=O)c3cc(-c4ccc(F)cc4F)on3)CN([C@H]3CC[C@@](C)(O)CC3)C2)c1 [Example 1.163] | > 8.30
59 | CC(C)(NC(=O)CC1(NC(=O)c2nnc(-c3ccc(F)cc3F)s2)CN([C@H]2CC[C@](C)(O)CC2)C1)c1ncccn1 [Example 1.033] | 7.00 to 8.30
